Results on twelve compounds are retold here after PMC10056595, “Odorant-Binding Proteins and Chemosensory Proteins in Spodoptera frugiperda: From Genome-Wide Identification and Developmental Stage-Related Expression Analysis to the Perception of Host Plant Odors, Sex Pheromones, and Insecticides” (International Journal of Molecular Sciences, 2023).

pKi: −log10 of the molar value. Where two headings read alike, the source gives them in different places.

In assay [1] the target is T1, SfruOBP31 (Spodoptera frugiperda, UniProt A0A2H1W9W7). The assay can be described thus: fluorescence competitive binding assay with the probe 1-NPN. Particulars: for pKi: competing ligand 2–20 µM, 2.0 µM 1-NPN, 2.0 µM protein, Ki < 20 µM recognized as binding; for binding of SfruOBP31 to the ligand (in words): competitive binding with 1-NPN, threshold Ki < 20 µM recognized as binding. The protocol: To investigate the ligand binding ability of SfruOBP31, we used a fluorescence competitive binding assay using the fluorescent probe N-phenyl-1-naphthylamine (1-NPN). Binding experiments were performed on a microplate reader using a Greiner 96 Black Flat Bottom. Among the ligands, we tested five host volatiles from the host plant Zea mays: decanal (97% purity, Shanghai Acmec Biochemical Co., Ltd., Shanghai, China), linalool (98% purity, Shanghai Acmec Biochemical Co., Ltd.), leaf alcohol (98% purity, Shanghai Acmec Biochemical Co., Ltd.), 1-nonanol (98% purity, Shanghai Acmec Biochemical Co., Ltd.), and cis-3-hexenyl acetate (98% purity, Shanghai Acmec Biochemical Co., Ltd.); four pheromones: (Z)-9-tetradecenyl acetate (93% purity, Shenzhen Regent Biochemical Technology Co., Ltd., Shenzhen, China), (Z)-11-hexadecenyl acetate (98% purity, Shanghai Bidd Medical Technology Co., Ltd., Shanghai, China), (Z)-7-dodecenyl acetate (90% purity, Shanghai Bidd Medical Technology Co., Ltd.), and (Z)-9-dodecenyl acetate (90% purity, Shanghai Bidd Medical Technology Co., Ltd.); and five pesticides: emamectin benzoate (90% purity, Energy Chemical), lufenuron (97.4% purity, Shanghai Yuanye Biotechnology Co., Ltd., Shanghai, China), chlorfenapyr (98% purity, Shanghai Yuanye Biotechnology Co., Ltd.), chlorantraniliprole (95% purity, Shanghai Yuanye Biotechnology Co., Ltd.), and lambda-cyhalothrin (96% purity, Guangdong Liwei Chemical Co., Ltd., Maoming, China). All chemicals used for testing and the fluorescent probe 1-NPN were dissolved in GC purify-grade methanol in a 400 µM solution. The 2.0 µM protein solution (in 10 mM HEPES and 100 mM NaCl buffer, pH 7.5) was titrated with 400 µM 1-NPN to a final concentration of 2–20 µM. The binding constant of the protein to 1-NPN was analyzed by assessing the continuous change of fluorescence value. Compounds of 2–20 µM concentration were added to the mixture of 2.0 µM 1-NPN and 2.0 µM protein or 2.0 µM 1-NPN alone to determine the binding rate of the ligands to the protein and the value of the fluorescence. The final fluorescence value was calculated as the fluorescence value after the addition of 1-NPN and protein with the competing ligand minus the fluorescence value after the addition of 1-NPN with the competing ligand only.
The dissociation constants (K1-NPN) of SfruOBP31 were calculated using Graphpad Prism 8 software. The dissociation constant (Ki) of 1-NPN by competing ligands was calculated with the following formula using IC50 value: Ki = [IC50]/(1 + [1-NPN]/K1-NPN). Here, IC50 is the concentration of competing ligands when the fluorescence intensity reaches half of the initial fluorescence intensity of 1-NPN, and [1-NPN] indicates the concentration of 1-NPN [16]. A threshold of Ki < 20 µM was recognized as binding.

The target of assay [2] is T1, SfruOBP31. The assay can be described thus: 1-NPN fluorescence binding (titration of SfruOBP31 with 1-NPN). Conditions: binding curve of SfruOBP31 with 1-NPN. The protocol: To investigate the ligand binding ability of SfruOBP31, we used a fluorescence competitive binding assay using the fluorescent probe N-phenyl-1-naphthylamine (1-NPN). Binding experiments were performed on a microplate reader using a Greiner 96 Black Flat Bottom. […] The binding constant of the protein to 1-NPN was analyzed by assessing the continuous change of fluorescence value. Compounds of 2–20 µM concentration were added to the mixture of 2.0 µM 1-NPN and 2.0 µM protein or 2.0 µM 1-NPN alone to determine the binding rate of the ligands to the protein and the value of the fluorescence. The final fluorescence value was calculated as the fluorescence value after the addition of 1-NPN and protein with the competing ligand minus the fluorescence value after the addition of 1-NPN with the competing ligand only.
The dissociation constants (K1-NPN) of SfruOBP31 were calculated using Graphpad Prism 8 software. The dissociation constant (Ki) of 1-NPN by competing ligands was calculated with the following formula using IC50 value: Ki = [IC50]/(1 + [1-NPN]/K1-NPN). Here, IC50 is the concentration of competing ligands when the fluorescence intensity reaches half of the initial fluorescence intensity of 1-NPN, and [1-NPN] indicates the concentration of 1-NPN [16]. […]

The mark [3] stands for this setting: Ki = [IC50]/(1 + [1-NPN]/K1-NPN).
[4] abbreviates: Ki = [IC50]/(1 + [1-NPN]/K1-NPN), read-out: Ki.

T1 sequence (A0A2H1W9W7 entry or part of it): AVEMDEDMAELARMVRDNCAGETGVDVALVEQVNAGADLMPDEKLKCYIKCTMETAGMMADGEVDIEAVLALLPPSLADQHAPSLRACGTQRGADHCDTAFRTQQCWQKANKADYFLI

A word on the pKi: it is −log10 of the Ki, conventionally taken in molar units. For the compound `CC1(C)[C@H](C(=O)O[C@H](C#N)c2cccc(Oc3ccccc3)c2)[C@@H]1/C=C(\Cl)C(F)(F)F` (racemic) [lambda-cyhalothrin, reference compound], in assay [1] (setting [3]), the pKi is 5.56.

Turning to `c1ccc(Nc2cccc3ccccc23)cc1` [1-NPN, N-phenyl-1-naphthylamine], the “Bmax (1-NPN, printed in Figure 11A)” value in assay [2] is 702,842.

As for `CCCCCCCCCO` [1-nonanol], the pKi in assay [1] (setting [4]) was 4.85.

Regarding `CCCC/C=C\CCCCCCCCOC(C)=O` [(Z)-9-tetradecenyl acetate], in assay [1] (setting [4]), the pKi is 5.30. Also, the “binding of SfruOBP31 to the ligand (in words)” value (from here on “binding of SfruOBP31”) in assay [1] was “selectively binds”.

In the case of `CCCC/C=C\CCCCCCCCCCOC(C)=O` [(Z)-11-hexadecenyl acetate], the pKi in assay [1] (setting [4]) is 5.27. The “binding of SfruOBP31” value in assay [1] is given as “selectively binds”.

Turning to `CNC(=O)c1cc(Cl)cc(C)c1NC(=O)c1cc(Br)nn1-c1ncccc1Cl` [chlorantraniliprole, reference compound], the pKi in assay [1] (setting [3]) is 4.65. The “binding of SfruOBP31” value in assay [1] is “lack of binding”.

With `CCOCn1c(-c2ccc(Cl)cc2)c(C#N)c(Br)c1C(F)(F)F` [chlorfenapyr, reference compound], the pKi in assay [1] (read-out: Ki (unit inferred)) was 5.09.

On to `CC/C=C\CCOC(C)=O` [cis-3-hexenyl acetate], for which the pKi in assay [1] (setting [4]) was 5.20.

`CCCCCCCCCC=O` [decanal]: in assay [1] (setting [4]), the pKi is 4.71.

For `C=CC(C)(O)CCC=C(C)C` (centres unmarked) [linalool], in assay [1] (setting [3]), the pKi was 5.39.

Take `O=C(NC(=O)c1c(F)cccc1F)Nc1cc(Cl)c(OC(F)(F)C(F)C(F)(F)F)cc1Cl` (centres unmarked) [lufenuron, reference compound]: the pKi in assay [1] (setting [3]) is 4.43. For the same compound, the “binding of SfruOBP31” value in assay [1] was “lack of binding”.

With emamectin benzoate [reference compound], in assay [1] (setting [4]), the negative logarithm of the Ki (pKi) is 4.56. For the same compound, the “binding of SfruOBP31” value in assay [1] is “lack of binding”.
